In patent publication US20260306644A1, “ANTIBODY RECRUITING MOLECULES FOR THE TREATMENT OF CORONAVIRUS DISEASE-19” (priority 2023, published 2026):
“And” between values parts separate entries of the source, which are not always exact repeats. Equal entries are not always repeated. Where two headings read alike, the source gives them in different places. Positions of bridges follow the written chain, without caps; N, C: chain ends. Non-standard residues stand in square brackets, D forms with d. Residues, ends and D or L forms follow the SMILES beside them. No end group written: not given here. *: point of attachment. X1 = O=C(CCCC[C@@H]1SC[C@@H]2NC(=O)N[C@@H]21)NCCOCCOCCOCCOCCN*; Biotin = O=C1N[C@H]2[C@H](CS[C@H]2CCCCC(=O)*)N1; PEG4 = NCCOCCOCCOCCOCCC(=O)O; hCys = N[C@@H](CCS)C(=O)O; Nle = CCCC[C@H](N)C(=O)O; Aib = CC(C)(N)C(=O)O

Tests used:
[1] = tested on: live SARS-CoV-2 Virus (wildtype); test: Neutralization of live SARS-CoV-2 virus, wildtype (Vero E6 cells, nucleoprotein ELISA); format: cell-based; settings: live virus neutralization, isolate Seattle WA (IITRI), Vero E6
[2] = biological target: T1, SARS-CoV-2 Spike A (wild-type) (Severe acute respiratory syndrome coronavirus 2, UniProt P0DTC2); test: MSD ACE2 competition assay (inhibition of Spike binding with ACE2, ECL), A (wild-type); settings: IC50 Wild Type, Wild Type Spike
T1 construct: purchased Meso Scale Diagnostics, LLC V-PLEX SARS-CoV-2 Panel 13 (ACE2) Kit / Panel 23 (ACE2) Kit

[3] = biological target: T2, SARS-CoV-2 Spike Glycoprotein RBD protein (Severe acute respiratory syndrome coronavirus 2, UniProt P0DTC2); test: Binding of biotinylated ligands to SARS-CoV-2 Spike Glycoprotein RBD protein by ELISA
T2 construct: SARS-CoV-2 (COVID-19) S Protein RBD, His Tag; purchased Acro Biosystems SPD-C52H3
Method: Materials. The binding affinity of biotinylated ligands to SARS-CoV-2 Spike Glycoprotein RBD protein was determined by ELISA. The binding assay was performed using the following steps: (1) assay plates (PE B&W Isoplate 96-well Flat Bottom, High Bindi-g - Perkin Elmer 6005580) were coated with 100 ul Anti-6× His tag antibody (Anti-6× His tag Antibody; Abcam ab15149, Mouse Monoclonal; Cambridge, UK) at 5 μg/ml in PBS, incubate 1 hour at 37° C. without shaking. The plates were washed (each wash step of this assay includes four 1-minute washes with 200 ul phosphate-buffered saline-0.05% (w/v) Tween® 20 detergent (PBST)). (2) Plates were blocked with 200 ul PBST-5% BSA (PBSTB; American Bio AB01088-00100; Canton, MA), for an hour at room temperature on a plate shaker (400 rpm). The plates were washed. […] The plates were washed. (4) Ligands were added, 100 ul at a concentration range of 0.1 mM to 100 nM in PBSTB, and incubated for 1 hour at room temperature on a plate shaker (200 RPM). The plates were washed. (5) NeutrAvidin™-HRP (Invitrogen 31030; Waltham, MA) is added, 100 ul at a dilution of 1:20,000 in PBSTB, and incubated for 1 hour at room temperature on a plate shaker (200 RPM). The plates were washed. (6) SuperSignal ELISA Pico Chemiluminescent Substrate (Thermo Scientific 37069; Waltham, MA) was added and incubated for 5 minutes at room temperature on a plate shaker (200 RPM).

SARS-CoV-2 Spike protein = SARS-CoV-2 Spike protein (Severe acute respiratory syndrome coronavirus 2, UniProt P0DTC2); test: Ternary binding of SARS-CoV-2 Spike protein (293T cells expressing Spike-GFP, IgG-AF647, flow cytometry); format: cell-based; settings: IgG-AF647 10 μg/ml, repeat values/batches listed separately
[4] = ELISA, biotinylated ligands, Spike RBD, read-out: ELISA SARS-CoV-2 Spike RBD Protein Binding EC50
[5] = 293T cells expressing Spike-GFP, read-out: SARS-CoV-2 Ternary binding EC50

Compound | EC50 [3, 4] | EC50 (SARS-CoV-2 Spike protein; [5]) | further results
DKEWILQKIYEIMRLLDELGHAEASMRVSDLIYEFMKKGDERLLEEAERLLEEVERDCAWHLGELVWCT (disulfide 58-68) [Compound 111] |  |  | EC50 [1]: 0.14 nM; IC50 [2]: 1.39 nM
CCCC[C@H](NC(=O)[C@H](CCC(=O)O)NC(=O)[C@H](CC(=O)O)NC(=O)[C@H](CC(C)C)NC(=O)[C@H](CC(C)C)NC(=O)[C@H](CCCNC(=N)N)NC(=O)[C@H](CCSC)NC(=O)[C@@H](NC(=O)[C@H](CCC(=O)O)NC(=O)[C@H](Cc1ccc(O)cc1)NC(=O)[C@@H](NC(=O)[C@H](CCCCN)NC(=O)[C@H](CCC(N)=O)NC(=O)[C@H](CC(C)C)NC(=O)[C@@H](NC(=O)[C@H](Cc1c[nH]c2ccccc12)NC(=O)[C@H](CCC(=O)O)NC(=O)[C@H](CCCCN)NC(=O)[C@H](CC(=O)O)NC(=O)CCOCCOCCOCCOCCNC(=O)CCCC[C@@H]1SC[C@@H]2NC(=O)N[C@@H]21)[C@@H](C)CC)[C@@H](C)CC)[C@@H](C)CC)C(=O)N[C@H](Cc1c[nH]cn1)C(=O)N[C@@H](Cc1c[nH]cn1)C(=O)N[C@@H](C)C(=O)N[C@@H](CCC(=O)O)C(=O)N[C@@H](C)C(=O)N[C@@H](CO)C(=O)N[C@@H](CCSC)C(=O)N[C@@H](CCCNC(=N)N)C(=O)N[C@H](C(=O)N[C@@H](CO)C(=O)N[C@@H](CC(=O)O)C(=O)N[C@@H](CC(C)C)C(=O)N[C@H](C(=O)N[C@@H](Cc1ccc(O)cc1)C(=O)N[C@@H](CCC(=O)O)C(=O)N[C@@H](Cc1ccccc1)C(=O)N[C@@H](CCSC)C(=O)N[C@@H](CCCCN)C(=O)N[C@@H](CCCCN)C(=O)NCC(=O)O)[C@@H](C)CC)C(C)C [Compound 222] | 0.79 nM | 0.02 nM | 
CC[C@H](C)[C@@H]1NC(=O)[C@H](Cc2c[nH]c3ccccc23)NC(=O)[C@H](CCC(=O)O)NC(=O)CSCC[C@@H](C(=O)NCCOCCOCCOCCOCCNC(=O)CCCC[C@@H]2SC[C@@H]3NC(=O)N[C@@H]32)NC(=O)[C@H](CCCCN)NC(=O)[C@H](CCCCN)NC(=O)[C@H](CCSC)NC(=O)[C@H](Cc2ccccc2)NC(=O)[C@H](CCC(=O)O)NC(=O)[C@H](Cc2ccc(O)cc2)NC(=O)[C@H]([C@@H](C)CC)NC(=O)[C@H](CC(C)C)NC(=O)[C@H](CC(=O)O)NC(=O)[C@H](CO)NC(=O)[C@H](C(C)C)NC(=O)[C@H](CCCNC(=N)N)NC(=O)[C@H](CCSC)NC(=O)[C@H](CO)NC(=O)[C@H](C)NC(=O)[C@H](CCC(=O)O)NC(=O)[C@H](C)NC(=O)[C@H](Cc2c[nH]cn2)NC(=O)CNC(=O)[C@H](CC(C)C)NC(=O)[C@H](CCC(=O)O)NC(=O)[C@H](CC(=O)O)NC(=O)[C@H](CC(C)C)NC(=O)[C@H](CC(C)C)NC(=O)[C@H](CCCNC(=N)N)NC(=O)[C@H](CCSC)NC(=O)[C@H]([C@@H](C)CC)NC(=O)[C@H](CCC(=O)O)NC(=O)[C@H](Cc2ccc(O)cc2)NC(=O)[C@H]([C@@H](C)CC)NC(=O)[C@H](CCCCN)NC(=O)[C@H](CCC(N)=O)NC(=O)[C@H](CC(C)C)NC1=O [Compound 251] ({CH2CO}-EWILQKIYEIMRLLDELGHAEASMRVSDLIYEFMKK[hCys]-X1; thioether N-37) | 0.92 nM | 0.08 nM | 
CC[C@H](C)[C@H](NC(=O)[C@H](CC(C)C)NC(=O)[C@H](CC(=O)O)NC(=O)[C@H](CO)NC(=O)[C@@H](NC(=O)[C@H](CCCNC(=N)N)NC(=O)[C@H](CCSC)NC(=O)[C@H](CO)NC(=O)[C@H](C)NC(=O)[C@@H]1CCCN1C(=O)[C@H](C)NC(=O)[C@H](Cc1c[nH]cn1)NC(=O)CNC(=O)[C@H](CC(C)C)NC(=O)[C@H](CCC(=O)O)NC(=O)[C@H](CC(=O)O)NC(=O)[C@H](CC(C)C)NC(=O)[C@H](CC(C)C)NC(=O)[C@H](CCCNC(=N)N)NC(=O)[C@H](CCSC)NC(=O)[C@@H](NC(=O)[C@H](CCC(=O)O)NC(=O)[C@H](Cc1ccc(O)cc1)NC(=O)[C@@H](NC(=O)[C@H](CCCCN)NC(=O)[C@H](CCC(N)=O)NC(=O)[C@H](CC(C)C)NC(=O)[C@@H](NC(=O)[C@H](Cc1c[nH]c2ccccc12)NC(=O)[C@H](CCC(=O)O)NC(=O)[C@H](CCCCN)NC(=O)[C@H](CC(=O)O)NC(=O)[C@H](CO)NC(=O)CCOCCOCCOCCOCCNC(=O)CCCC[C@@H]1SC[C@@H]2NC(=O)N[C@@H]21)[C@@H](C)CC)[C@@H](C)CC)[C@@H](C)CC)C(C)C)C(=O)N[C@@H](Cc1ccc(O)cc1)C(=O)N[C@@H](CCC(=O)O)C(=O)N[C@@H](Cc1ccccc1)C(=O)N[C@@H](CCSC)C(=O)N[C@@H](CCCCN)C(=O)N[C@@H](CCCCN)C(=O)NCC(N)=O [Compound 193] ({Biotin-PEG4}-SDKEWILQKIYEIMRLLDELGHAPASMRVSDLIYEFMKKG-NH2) | 4.6 nM | 2.3 nM and 0.24 nM | 
{Biotin-PEG4}-[Aib]SDKEWILQKIYEIMRLLDELGHAEAS[Nle]RVSDLIY[Aib]FMK[Aib]G [Compound 218] | 2.38 nM | 0.1 nM | 
CC[C@H](C)[C@H](NC(=O)[C@H](CC(C)C)NC(=O)[C@H](CC(=O)O)NC(=O)[C@H](CO)NC(=O)[C@@H](NC(=O)[C@H](CCCNC(=N)N)NC(=O)[C@H](CCSC)NC(=O)[C@H](CO)NC(=O)[C@H](C)NC(=O)[C@@H]1CCCN1C(=O)[C@H](C)NC(=O)[C@H](Cc1c[nH]cn1)NC(=O)CNC(=O)[C@H](CC(C)C)NC(=O)[C@H](CCC(=O)O)NC(=O)[C@H](CC(=O)O)NC(=O)[C@H](CC(C)C)NC(=O)[C@H](CC(C)C)NC(=O)[C@H](CCCNC(=N)N)NC(=O)[C@H](CCSC)NC(=O)[C@@H](NC(=O)[C@H](CCC(=O)O)NC(=O)[C@H](Cc1ccc(O)cc1)NC(=O)[C@@H](NC(=O)[C@H](CCCCN)NC(=O)[C@H](CCC(N)=O)NC(=O)[C@H](CC(C)C)NC(=O)[C@@H](NC(=O)[C@H](Cc1c[nH]c2ccccc12)NC(=O)[C@H](CCC(=O)O)NC(=O)[C@H](CCCCN)NC(=O)[C@H](CC(=O)O)NC(=O)CCOCCOCCOCCOCCNC(=O)CCCC[C@@H]1SC[C@@H]2NC(=O)N[C@@H]21)[C@@H](C)CC)[C@@H](C)CC)[C@@H](C)CC)C(C)C)C(=O)N[C@@H](Cc1ccc(O)cc1)C(=O)N[C@@H](CCC(=O)O)C(=O)N[C@@H](Cc1ccccc1)C(=O)N[C@@H](CCSC)C(=O)N[C@@H](CCCCN)C(=O)N[C@@H](CCCCN)C(=O)NCC(=O)N[C@@H](CC(=O)O)C(=O)N[C@@H](CCC(=O)O)C(=O)N[C@@H](CCCNC(=N)N)C(=O)N[C@@H](CC(C)C)C(=O)N[C@@H](CC(C)C)C(=O)N[C@@H](CCC(=O)O)C(=O)N[C@@H](CCC(=O)O)C(=O)N[C@@H](C)C(=O)N[C@@H](CCC(=O)O)C(=O)N[C@@H](CCCNC(=N)N)C(=O)N[C@@H](CC(C)C)C(=O)N[C@@H](CC(C)C)C(=O)N[C@@H](CCC(=O)O)C(=O)N[C@@H](CCC(=O)O)C(=O)N[C@H](C(=O)N[C@@H](CCC(=O)O)C(=O)N[C@@H](CCCNC(=N)N)C(N)=O)C(C)C [Compound 187] |  |  | EC50 [3]: 0.37 nM; EC50 (SARS-CoV-2 Spike protein; SARS-CoV-2 Ternary binding EC50, 293T cells expressing Spike-GFP): 0.07 nM
